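Growth conditions: 96-well plates. Treatment: test compound, 48 hours, 5 concentrations. Analysis: linear interpolation between bracketing concentrations; unreached endpoints set to highest concentration. Here, GI50 denotes the concentration required for 50% inhibition of growth.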 Calls of active or inactive are those of the source. Rule as the data show it: active = GI50 up to about 1.1 µM and inactive = higher.
Experiments:
Test in all cases: NCI tumour cell line growth inhibition, 48 h
[1] = tested on: SNB-19
[2] = tested on: U-251
[3] = tested on: M19-MEL
[4] = tested on: HCC 2998
[5] = tested on: KM12
[6] = tested on: EKVX
[7] = tested on: OVCAR-4
[8] = tested on: LOX IMVI
[9] = tested on: 786-0
[10] = tested on: K562
[11] = tested on: DMS-114
[12] = tested on: NCI-H23
[13] = tested on: HOP-92
[14] = tested on: SF-295
[15] = tested on: SR
[16] = tested on: HOP-62
[17] = tested on: PC-3
[18] = tested on: MDA-MB-231
[19] = tested on: DU-145
[20] = tested on: BT-549

Structure (SMILES)	GI50 [1]	GI50 [2]	GI50 [3]	GI50 [4]	GI50 [5]	GI50 [6]	GI50 [7]	GI50 [8]	GI50 [9]	GI50 [10]	GI50 [11]	GI50 [12]	GI50 [13]	GI50 [14]	GI50 [15]	GI50 [16]	GI50 [17]	GI50 [18]	GI50 [19]	GI50 [20]
O=C1C(c2ccccc2)=C(O)c2cccc3cccc1c23	> 100 µM (inactive)	> 100 µM (inactive)	> 100 µM (inactive)	> 100 µM (inactive)	> 100 µM (inactive)	> 100 µM (inactive)	> 100 µM (inactive)	> 100 µM (inactive)	> 100 µM (inactive)	> 100 µM (inactive)	> 100 µM (inactive)	> 100 µM (inactive)	29 µM (inactive)	> 100 µM (inactive)	> 100 µM (inactive)					
CCCCCNC(=O)CCCCCCCCCCCNC(=O)CCCCCCCCCCN1C=CC(=CC=C2C=CC(=O)C=C2)C=C1	34.8 µM (inactive)	32.1 µM (inactive)	34.4 µM (inactive)	32.7 µM (inactive)	37.4 µM (inactive)	> 100 µM (inactive)	65 µM (inactive)	34.8 µM (inactive)	> 100 µM (inactive)	21.2 µM (inactive)	12.6 µM (inactive)	28.2 µM (inactive)	14.7 µM (inactive)	71.4 µM (inactive)	6.64 µM (inactive)	64.6 µM (inactive)				
CN(C)C(=S)/N=c1\ss/c(=N\C(=S)N(C)C)n1C1CCCCC1	22 µM (inactive)	27.4 µM (inactive)	0.524 µM (active)	> 100 µM (inactive)	> 100 µM (inactive)	> 100 µM (inactive)	15.5 µM (inactive)	86.3 µM (inactive)	> 100 µM (inactive)	28.1 µM (inactive)	0.452 µM (active)	63.2 µM (inactive)		> 100 µM (inactive)	> 100 µM (inactive)	> 100 µM (inactive)				
O=C(NC1C(=O)NNC1c1ccccc1Cl)c1ccccc1 (stereo unspecified)	> 100 µM (inactive)	> 100 µM (inactive)	> 100 µM (inactive)	> 100 µM (inactive)	> 100 µM (inactive)	> 100 µM (inactive)	> 100 µM (inactive)	> 100 µM (inactive)	> 100 µM (inactive)	39.4 µM (inactive)	> 100 µM (inactive)	> 100 µM (inactive)	> 100 µM (inactive)	> 100 µM (inactive)	42.2 µM (inactive)	> 100 µM (inactive)				
CC1CCCc2c(CC3CC(=O)NC(=O)C3)n[nH]c21 (stereo unspecified)	> 100 µM (inactive)	> 100 µM (inactive)	> 100 µM (inactive)	> 100 µM (inactive)	> 100 µM (inactive)	> 100 µM (inactive)	> 100 µM (inactive)	> 100 µM (inactive)	> 100 µM (inactive)	> 100 µM (inactive)	> 100 µM (inactive)	> 100 µM (inactive)	> 100 µM (inactive)	> 100 µM (inactive)	> 100 µM (inactive)	> 100 µM (inactive)				
Cc1ccccc1NC(=O)c1ccc([N+](=O)[O-])cc1	> 100 µM (inactive)	> 100 µM (inactive)	> 100 µM (inactive)	> 100 µM (inactive)	67.5 µM (inactive)	> 100 µM (inactive)	> 100 µM (inactive)	> 100 µM (inactive)	> 100 µM (inactive)	93.5 µM (inactive)	74 µM (inactive)	> 100 µM (inactive)	> 100 µM (inactive)	> 100 µM (inactive)		> 100 µM (inactive)				
CCN(CC)CC1CCCCN1CC(=O)N1CC(C)C(=O)Nc2ccccc21 (stereo unspecified)	> 100 µM (inactive)	> 100 µM (inactive)	> 100 µM (inactive)	> 100 µM (inactive)			> 100 µM (inactive)	> 100 µM (inactive)	> 100 µM (inactive)	> 100 µM (inactive)	> 100 µM (inactive)	> 100 µM (inactive)	> 100 µM (inactive)	> 100 µM (inactive)	> 100 µM (inactive)	> 100 µM (inactive)				
[N-]=[N+]=NC1(Cc2ccccc2)C(=O)Nc2ccccc2C1=O (stereo unspecified)	> 100 µM (inactive)	> 100 µM (inactive)	> 100 µM (inactive)	> 100 µM (inactive)	> 100 µM (inactive)	> 100 µM (inactive)	> 100 µM (inactive)	> 100 µM (inactive)	> 100 µM (inactive)	> 100 µM (inactive)	> 100 µM (inactive)	> 100 µM (inactive)	> 100 µM (inactive)	> 100 µM (inactive)	> 100 µM (inactive)	> 100 µM (inactive)				
C/C(=N\NC(N)=S)c1cc(C)c(C)cc1C		48.6 µM (inactive)	25.9 µM (inactive)	52.5 µM (inactive)	25.5 µM (inactive)	8.69 µM (inactive)	30.9 µM (inactive)	70.8 µM (inactive)	93.8 µM (inactive)	40.3 µM (inactive)	21 µM (inactive)	41.7 µM (inactive)	> 100 µM (inactive)	47 µM (inactive)	37 µM (inactive)	> 100 µM (inactive)				
O=C(c1ccco1)N(C(=S)N1CCN(c2ccccc2)CC1)C1CCCCC1	> 100 µM (inactive)	> 100 µM (inactive)	> 100 µM (inactive)		> 100 µM (inactive)		> 100 µM (inactive)	57.3 µM (inactive)	> 100 µM (inactive)	> 100 µM (inactive)	38.7 µM (inactive)	> 100 µM (inactive)	> 100 µM (inactive)	79.8 µM (inactive)	> 100 µM (inactive)	> 100 µM (inactive)				
C/C(=N\N)C(CN1CCCCC1)C(c1ccccc1)c1c(O)c2ccccc2oc1=O (stereo unspecified)	> 100 µM (inactive)	> 100 µM (inactive)	> 100 µM (inactive)	> 100 µM (inactive)	> 100 µM (inactive)	> 100 µM (inactive)	> 100 µM (inactive)	25.7 µM (inactive)	> 100 µM (inactive)	> 100 µM (inactive)	> 100 µM (inactive)	> 100 µM (inactive)	67 µM (inactive)	> 100 µM (inactive)	> 100 µM (inactive)	> 100 µM (inactive)	> 100 µM (inactive)	> 100 µM (inactive)	> 100 µM (inactive)	> 100 µM (inactive)
CC(=O)OC(CC1(C)C(C)CCC23COC(=O)C2=CCCC31)c1ccoc1 (stereo unspecified)	25.4 µM (inactive)	15.8 µM (inactive)	33.8 µM (inactive)	22.3 µM (inactive)	26.2 µM (inactive)	30.5 µM (inactive)	28.1 µM (inactive)	21.3 µM (inactive)	17.1 µM (inactive)	23.4 µM (inactive)	29.9 µM (inactive)	19 µM (inactive)	26.2 µM (inactive)	28.7 µM (inactive)		27.5 µM (inactive)				
O=[N+]([O-])c1ccc(/C(Cl)=C/c2ccc(/C=C(\Cl)c3ccc([N+](=O)[O-])cc3[N+](=O)[O-])cc2)c([N+](=O)[O-])c1		> 100 µM (inactive)	> 100 µM (inactive)	> 100 µM (inactive)		> 100 µM (inactive)	> 100 µM (inactive)	> 100 µM (inactive)	> 100 µM (inactive)		> 100 µM (inactive)	> 100 µM (inactive)	> 100 µM (inactive)	> 100 µM (inactive)	> 100 µM (inactive)	> 100 µM (inactive)				
O=C1OC(c2ccccc2)=N/C1=C/NC(CS)C(=O)O (stereo unspecified)	> 100 µM (inactive)	> 100 µM (inactive)	> 100 µM (inactive)	> 100 µM (inactive)		> 100 µM (inactive)	> 100 µM (inactive)	> 100 µM (inactive)	> 100 µM (inactive)	> 100 µM (inactive)	> 100 µM (inactive)	> 100 µM (inactive)	> 100 µM (inactive)	> 100 µM (inactive)	> 100 µM (inactive)	> 100 µM (inactive)				
COC1CC(C)C(OC)c2cc(O)cc(c2O)NC(=O)/C(C)=C/C=C\C(C)C(OC(N)=O)/C(C)=C\C(C)C1OC (stereo unspecified)	3.78 µM (inactive)	0.497 µM (active)	0.437 µM (active)	0.951 µM (active)	0.255 µM (active)	10.5 µM (inactive)	3.2 µM (inactive)	0.471 µM (active)	2.03 µM (inactive)		0.406 µM (active)		0.347 µM (active)	1.24 µM (inactive)	0.0396 µM (active)	0.579 µM (active)	0.228 µM (active)		0.231 µM (active)	
COC(=O)c1c(C)cc2c(c1O)C1(O)C(=O)c3cc4c(c(O)c3C(=O)C1(OC)C(O)C2)C(=O)C=C(NC1OC(C)C(OC)C(O)C1OC)C4=O (stereo unspecified)	0.159 µM (active)	0.207 µM (active)	0.0196 µM (active)	0.138 µM (active)	0.129 µM (active)	0.241 µM (active)	0.0687 µM (active)	0.0342 µM (active)	0.0753 µM (active)	0.0204 µM (active)	0.0104 µM (active)	0.0152 µM (active)	0.26 µM (active)	0.0331 µM (active)	0.0405 µM (active)	0.277 µM (active)				
O=[N+]([O-])c1ccc(CNC2=NNS(=O)(=O)c3ccccc32)cc1	> 100 µM (inactive)	72.1 µM (inactive)	> 100 µM (inactive)	> 100 µM (inactive)	> 100 µM (inactive)	> 100 µM (inactive)	> 100 µM (inactive)	54 µM (inactive)	> 100 µM (inactive)	27 µM (inactive)	> 100 µM (inactive)		> 100 µM (inactive)	> 100 µM (inactive)	31.6 µM (inactive)					

— ChEMBL document CHEMBL1201862, “PubChem BioAssay data set” (2004)
